The target of assay [1] is T1, human 5-hydroxytryptamine-2C (h5-HT2C) receptor (Homo sapiens, UniProt P28335).
T1 construct: expressed in transfected cells; host or cells: CHO (Chinese Hamster Ovary) cells; membranes
T1 sequence (P28335 33-458): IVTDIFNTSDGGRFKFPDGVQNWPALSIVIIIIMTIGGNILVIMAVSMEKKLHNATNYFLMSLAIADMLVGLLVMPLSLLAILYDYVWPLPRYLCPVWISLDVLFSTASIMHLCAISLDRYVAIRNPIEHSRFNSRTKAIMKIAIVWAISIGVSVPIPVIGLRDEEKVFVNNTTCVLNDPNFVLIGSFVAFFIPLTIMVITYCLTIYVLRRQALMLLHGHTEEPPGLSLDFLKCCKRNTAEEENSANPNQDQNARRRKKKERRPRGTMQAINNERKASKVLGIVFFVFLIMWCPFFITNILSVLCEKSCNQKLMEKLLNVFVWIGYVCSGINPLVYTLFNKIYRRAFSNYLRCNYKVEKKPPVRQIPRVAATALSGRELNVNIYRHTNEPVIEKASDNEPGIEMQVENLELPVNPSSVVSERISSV
The assay is described as follows: 5-HT2C binding: [125I]DOI displacement in membranes of transfected CHO cells. As to conditions: read-out: 5-HT2C Binding Ki avg.

In assay [2] the test system is male C57BL/6J mice and lean Zucker rats. Put plainly: Obesity Model A: acute food intake after overnight fast, oral dosing. The class given is in vivo. On the procedure:
To evaluate acute in vivo efficacy of various compounds, 7 weeks-old male C57BL/6J mice were obtained from The Jackson Laboratory (Bar Harbor, Me.) and 6 weeks-old lean Zucker rats were purchased from Charles River Laboratories (Wilmington, Mass.). Mice and rats were single housed in a temperature-controlled (25° C.) facility with a 12-h light/dark cycle. Animals were allowed normal chow diet (Rodent chow #5001, PharmaServ, Framingham, Mass.) and water ad libitum. After one week acclimation, animals were randomized to vehicle (saline) or treatment groups. Animals were fasted overnight (16 hrs) and orally dosed with vehicle or compounds. Thirty minutes after compound administration, animals were given a weighed amount of food, and food intake was recorded 30 minutes, 1 h, 2 h, 4 h, 7 h and 24 h after refeeding.

In the next assay the target is T2, human 5-HT2C receptor (Homo sapiens, UniProt P28335).
T2 sequence (P28335 33-458): T1 sequence (P28335 33-458)
The assay is described as follows: 5-HT2C receptor-stimulated calcium mobilization (FLIPR) in CHO cells. To be noted: for Emax: CHO, read-out: 5-HT2C Function EMax (%); for EC50: read-out: 5-HT2C Function EC50. The class given is cell-based. A general note: Calcium flux is commonly read through the fluorescence of an indicator in the cells.

Usually Ki stands for a measure of affinity in units of concentration, obtained from inhibition or displacement. One may read the Emax as the greatest response seen or fitted, relative to the assay's reference. As usually defined, the EC50 is the concentration that produces a half-maximal response. `NCC1COc2cccc(-c3ccccc3Cl)c2O1` (stereo not drawn) [Compound I-1, {[8-(2-Chlorophenyl)-2,3-dihydro-1,4-benzodioxin-2-yl]methyl}amine]: the Ki in assay [1] was less than 50 nM. For the same compound, the “% Reduction food intake (vs vehicle)” value in assay [2] (10 mpk oral, 0.5 hour after refeeding) is 4 ± 8%; in assay [2] (10 mpk oral, 2 hours after refeeding), 6 ± 8%; in assay [2] (10 mpk oral, 4 hours after refeeding), 16 ± 8%; in assay [2] (30 mpk oral, 0.5 hour after refeeding), 60 ± 12%; in assay [2] (30 mpk oral, 2 hours after refeeding) it was 40 ± 8%; in assay [2] (30 mpk oral, 4 hours after refeeding), 42 ± 5%. Further, the “% Reduction food intake (vs vehicle)” value in assay [2] (50 mpk oral, 0.5 hour after refeeding) is recorded as 74 ± 17%; in assay [2] (50 mpk oral, 2 hours after refeeding), 55 ± 13%; in assay [2] (50 mpk oral, 4 hours after refeeding) it was 48 ± 13%. For the same compound, the Emax on human 5-HT2C receptor worked out at 60%. For the same compound, the EC50 on human 5-HT2C receptor was less than 100 nM.
For the compound `NC[C@H]1COc2cc(Cl)cc(-c3ccccc3F)c2O1` [Compound I-59, (2S)-[6-Chloro-8-(2-fluoro-phenyl)-2,3-dihydro-benzo[1,4]dioxin-2-yl]-methylamine], in assay [1], the Ki is less than 50 nM. Moreover, at human 5-HT2C receptor, the Emax amounted to 40% and the concentration for a half-maximal effect (EC50) fell in the range of 100 to 500 nM.
Consider `Cc1ccccc1-c1cc(Cl)cc2c1O[C@@H](CN)CO2` [Compound I-60, (2S)-[6-Chloro-8-(2-methyl-phenyl)-2,3-dihydro-benzo[1,4]dioxin-2-yl]-methylamine], for which the inhibition constant (Ki) in assay [1] is less than 50 nM. Also, at human 5-HT2C receptor, the Emax is 50% and the EC50 lay in the range of 100 to 500 nM.
Taken in the same sequence, the figures for `COc1ccccc1-c1cc(Cl)cc2c1O[C@@H](CN)CO2` [Compound I-61, (2S)-[6-Chloro-8-(2-methoxy-phenyl)-2,3-dihydro-benzo[1,4]dioxin-2-yl]-methylamine] were less than 50 nM, 50% and 100 to 500 nM.
Take `NC[C@H]1COc2cc(Cl)cc(-c3ccccc3C(F)(F)F)c2O1` [Compound I-62, (2S)-[6-Chloro-8-(2-trifluoromethyl-phenyl)-2,3-dihydro-benzo[1,4]dioxin-2-yl]-methylamine]: the Ki in assay [1] was less than 50 nM. Besides, on human 5-HT2C receptor, the Emax amounted to 60% and the EC50 is 100 to 500 nM.
Taken in the same sequence, the figures for `COc1cccc(-c2cc(Cl)cc3c2O[C@@H](CN)CO3)c1OC` [Compound I-63, (2S)-[6-Chloro-8-(2,3-dimethoxy-phenyl)-2,3-dihydro-benzo[1,4]dioxin-2-yl]-methyl amine] were less than 50 nM, 50% and greater than 500 nM.
Taken in the same sequence, the figures for `NC[C@H]1COc2cc(Cl)cc(-c3ccc(Cl)cc3Cl)c2O1` [Compound I-64, (2S)-[6-Chloro-8-(2,4-dichloro-phenyl)-2,3-dihydro-benzo[1,4]dioxin-2-yl]-methyl amine] were less than 50 nM, 60% and 100 to 500 nM.
On to `NC[C@H]1COc2cc(Cl)cc(-c3cc(Cl)ccc3Cl)c2O1` [Compound I-67, (2S)-[6-Chloro-8-(2,5-dichloro-phenyl)-2,3-dihydro-benzo[1,4]dioxin-2-yl]-methyl amine], for which the Ki in assay [1] is less than 50 nM. Further, at human 5-HT2C receptor, the Emax came out at 50% and the EC50 was in the range of 100 to 500 nM.
Taken in the same sequence, the figures for `Cc1cccc(C)c1-c1cc(Cl)cc2c1O[C@@H](CN)CO2` [Compound I-69, (2S)-[6-Chloro-8-(2,6-dimethyl-phenyl)-2,3-dihydro-benzo[1,4]dioxin-2-yl]-methyl amine] were less than 50 nM, 60% and 100 to 500 nM.
The corresponding values for `NC[C@H]1COc2ccc(Cl)c(-c3ccccc3Cl)c2O1` [Compound I-70, (2S)-[7-Chloro-8-(2-chloro-phenyl)-2,3-dihydro-benzo[1,4]dioxin-2-yl]-methylamine] are less than 50 nM, 50% and less than 100 nM.
The corresponding values for `NC[C@H]1COc2ccc(F)c(-c3ccccc3Cl)c2O1` [Compound I-71, (2S)-[8-(2-Chloro-phenyl)-7-fluoro-2,3-dihydro-benzo[1,4]dioxin-2-yl]-methylamine] are less than 50 nM, 40% and less than 100 nM.
Consider `COc1ccccc1-c1cc(F)cc2c1OC(CN)O2` (stereo not drawn) [Compound I-76, 1-[6-Fluoro-4-(2-methoxyphenyl)-1,3-benzodioxol-2-yl]methanamine], for which the Ki in assay [1] is less than 50 nM. Also, on human 5-HT2C receptor, the Emax was found to be 70% and the EC50 was less than 100 nM.
Regarding `Cc1ccccc1-c1cc(F)cc2c1OC(CN)O2` (stereo not drawn) [Compound I-80, 1-[4-(2-Methyl-phenyl)-6-fluoro-1,3-benzodioxol-2-yl]methanamine], the Ki in assay [1] is less than 50 nM. On human 5-HT2C receptor, the Emax was determined as 90% and the EC50 was less than 100 nM.
The corresponding values for `NCC1Oc2cc(F)cc(-c3cc(Cl)ccc3Cl)c2O1` (stereo not drawn) [Compound I-81, 1-[4-(2,5-Dichloro-phenyl)-6-fluoro-1,3-benzodioxol-2-yl]methanamine] are less than 50 nM, 80% and less than 100 nM.
Turning to `NCC1Oc2cc(F)cc(-c3ccccc3C(F)(F)F)c2O1` (stereo not drawn) [Compound I-82, 1-[4-(2-Trifluoromethyl-phenyl)-6-fluoro-1,3-benzodioxol-2-yl]methanamine], in assay [1], the Ki is less than 50 nM. Moreover, on human 5-HT2C receptor, the Emax was found to be 70% and the EC50 was less than 100 nM.
Taken in the same sequence, the figures for `NCC1Oc2cc(F)cc(-c3ccccc3F)c2O1` (stereo not drawn) [Compound I-83, 1-[4-(2-Fluoro-phenyl)-6-fluoro-1,3-benzodioxol-2-yl]methanamine] were less than 50 nM, 70% and less than 100 nM.
Turning to `NCC1Oc2cc(F)cc(-c3ccccc3Cl)c2O1` (stereo not drawn) [Compound I-84, 1-[4-(2-Chloro-phenyl)-6-fluoro-1,3-benzodioxol-2-yl]methanamine], the Ki in assay [1] is less than 50 nM. Besides, on human 5-HT2C receptor, the Emax worked out at 80% and the EC50 was less than 100 nM.
The corresponding values for `NC[C@H]1Oc2cc(F)cc(-c3c(Cl)cccc3Cl)c2O1` [Compound I-85, 1-[(2S)-4-(2,6-dichlorophenyl)-6-fluoro-1,3-benzodioxol-2-yl]methanamine] are less than 50 nM, 90% and less than 100 nM.
As for `NC[C@@H]1Oc2cc(F)cc(-c3c(Cl)cccc3Cl)c2O1` [Compound I-86, 1-[(2R)-4-(2,6-dichlorophenyl)-6-fluoro-1,3-benzodioxol-2-yl]methanamine], the Ki in assay [1] was less than 50 nM. Besides, on human 5-HT2C receptor, the Emax came out at 80% and the EC50 was greater than 500 nM.
Taken in the same sequence, the figures for `CNCC1Oc2cc(F)cc(-c3ccccc3Cl)c2O1` (stereo not drawn) [Compound I-87, 1-[4-(2-Chlorophenyl)-6-fluoro-1,3-benzodioxol-2-yl]-N-methylmethanamine] were less than 50 nM, 80% and less than 100 nM.
Taken in the same sequence, the figures for `NCC1Oc2cc(Cl)cc(-c3ccccc3Cl)c2O1` (stereo not drawn) [Compound I-90, [6-Chloro-4-(2-chloro-phenyl)-benzo[1,3]dioxol-2-yl]-methylamine] were less than 50 nM, 80% and less than 100 nM.
The corresponding values for `Cc1ccccc1-c1cc(Cl)cc2c1OC(CN)O2` (stereo not drawn) [Compound I-91, [6-Chloro-4-(2-methyl-phenyl)-benzo[1,3]dioxol-2-yl]-methylamine] are less than 50 nM, 80% and less than 100 nM.
Take `NCC1Oc2cc(Cl)cc(-c3ccc(Cl)cc3Cl)c2O1` (stereo not drawn) [Compound I-96, [6-Chloro-4-(2,4-dichloro-phenyl)-benzo[1,3]dioxol-2-yl]-methylamine]: in assay [1], the Ki is less than 50 nM. For the same compound, on human 5-HT2C receptor, the Emax was determined as 80% and the concentration giving a half-maximal response (EC50) was less than 100 nM.
`NCC1Oc2cc(Cl)cc(-c3cc(Cl)ccc3Cl)c2O1` (stereo not drawn) [Compound I-98, [6-Chloro-4-(2,5-dichloro-phenyl)-benzo[1,3]dioxol-2-yl]-methylamine]: in assay [1], the inhibitory constant (Ki) is less than 50 nM. At human 5-HT2C receptor, the Emax turned out to be 80% and the concentration giving a half-maximal response (EC50) is less than 100 nM.

The record behind these values is patent publication US20060241172A1, “Benzodioxane and benzodioxolane derivatives and uses thereof” (Wyeth, priority 2005, published 2006).
